This is an account of results in PubChem BioAssay AID588568 (The Scripps Research Institute Molecular Screening Center, 2011).

The assay addresses Melanin-concentrating hormone receptor 1 (Homo sapiens) (UniProt Q99705). Nature of the assay: MCHR1 antagonists, dose response, counter-screen for GPR7 antagonist project, cell-based, fluorescence, set 4 (AID 588568). As to conditions: MCHR1-expressing cells, fluorescence antagonist assay; for inhibition: at 20 µM (top of the series).

Molecules are shown by their SMILES. Active and inactive are the calls of the source. How the calls were made is not given here. Where only a bound is given, the exact number is not on record here.

For `CCCCOC(=O)C(c1ccccc1Cl)n1ncc(Cl)c(Oc2ccc(OC)cc2)c1=O` (stereo unspecified), the IC50 result (run 1) is “inactive”.
Still for that read-out and setting: then `COc1ccc(Oc2c(Br)nn(-c3cccc(C)c3)c(=O)c2Oc2ccc(OC)cc2)cc1`, with 1.66 µM.
The same measure, in the same setting: then `CCCCCCCn1ncc(Cl)c(Oc2ccc(OC)cc2)c1=O`, with “inactive”; and `CCc1cccc(-n2ncc(Cl)c(Oc3ccc(OC)cc3)c2=O)c1`, with 2.31 µM; and `COc1ccc(Oc2c(Cl)cnn(-c3ccc(OC)cc3)c2=O)cc1`, with “inactive”.
The same measure, in the same setting: then `O=c1c(Oc2ccc(CO)cc2)c(Cl)cnn1Cc1ccc2ccccc2c1`, with 2.23 µM; and `COc1ccc(Oc2c(Cl)cnn(CCc3cccc4ccccc34)c2=O)cc1`, with “inactive”.
With `COc1ccc(Oc2c(Cl)c(-c3ccccc3C)nn(Cc3ccccc3C)c2=O)cc1`, under “run 1”, the 50% inhibitory concentration (IC50) is 1.79 µM.
With `Cc1cc(C)cc(Cn2[nH]cc(Oc3ccc(CO)cc3)c(=O)c2=O)c1`, the IC50 (run 1) is 2.32 µM.
On the same count and under the same terms, then `COc1ccc(Oc2c(C#N)cnn(Cc3ccccc3C)c2=O)cc1`, with > 20 µM (inactive); and `CCOC(=O)C(c1ccccc1Cl)n1ncc(Cl)c(Oc2ccc(OC)cc2)c1=O` (stereo unspecified), with 3.26 µM; and `Cc1cc(C)cc(-n2ncc(Cl)c(Oc3ccc(-c4ccccc4)cc3)c2=O)c1`, with 8.03 µM.
The same measure, in the same setting: then `O=c1c(Oc2ccc(CCl)cc2)c(Cl)cnn1Cc1cccc2ccccc12`, with 7.92 µM; and `COc1ccc(Oc2c(Cl)cnn(-c3ccc(Br)cc3)c2=O)cc1`, with 6.4 µM.
On the same count and under the same terms, then `O=c1c(Oc2ccc(OC(F)(F)F)cc2)c(Cl)cnn1C1c2ccccc2-c2ccccc21`, with > 20 µM (inactive).
As for `COc1ccc(Oc2c(Cl)cnn(Cc3ccc(F)c4ccccc34)c2=O)cc1`, where the note is “run 1”, the IC50 was 2.49 µM.
Same read-out and setting: then `COc1ccc(Oc2c(Cl)cnn(Cc3ccc(Cl)c(C)c3)c2=O)cc1`, with “inactive”; and `COc1ccc(Oc2c(Cl)cnn(C(CCl)c3cccc4ccccc34)c2=O)cc1` (stereo unspecified), with > 20 µM (inactive); and `O=c1c(Oc2ccc(CO)cc2)c(Cl)cnn1Cc1cccc2ccccc12`, with 6.75 µM.
Still for that read-out and setting: then `COc1ccc(Oc2c(Cl)cnn(CC3CCCCC3)c2=O)cc1`, with “inactive”.
As for `COc1ccc(Oc2c(Cl)cnn(C(C(=O)OCCC3CCCC3)c3ccccc3Cl)c2=O)cc1` (stereo unspecified), the IC50 (run 1) is > 20 µM (inactive).
The same measure, in the same setting: then `COc1ccc(Oc2c(OC)nn(-c3cccc(C)c3)c(=O)c2Oc2ccc(OC)cc2)cc1`, with “inactive”; and `COc1ccc(Oc2c(Cl)c(-c3ccc(OC)cc3)nn(Cc3ccccc3C)c2=O)cc1`, with > 20 µM (inactive).
The same measure, in the same setting: then `CC(C)Oc1ccc(Oc2c(Cl)cnn(Cc3cccc4ccccc34)c2=O)cc1`, with “inactive”.
The same measure, in the same setting: then `O=C(c1cnn(-c2ccc(Cl)cc2)c1C(F)(F)F)N1CCN(c2ccc([N+](=O)[O-])cc2)CC1`, with 1.64 µM.
In the case of `COc1ccc(Oc2c(Cl)cnn(C(c3ccccc3)c3c(C)noc3C)c2=O)cc1` (stereo unspecified), the IC50 (run 1) was > 20 µM (inactive).
The same measure, in the same setting: then `Cc1ccccc1Cn1ncc(Cl)c(Oc2ccc(CO)cc2)c1=O`, with 4.92 µM; and `COc1ccc(Oc2c(Cl)cnn(Cc3ccc(C(C)C)cc3)c2=O)cc1`, with > 20 µM (inactive).
For the compound `CCN(CC)C(=O)C(c1ccccc1Cl)n1ncc(Cl)c(Oc2ccc(OC)cc2)c1=O` (stereo unspecified), the IC50 (run 1) was > 11.5 µM (inactive).
Consider `COc1ccc(Oc2c(Cl)cnn(C(c3ccccc3)c3cccc4ccccc34)c2=O)cc1` (stereo unspecified), for which, under “run 1”, the IC50 was > 20 µM (inactive).
For `COc1ccc(Oc2c(Cl)cnn(CC3CCC3)c2=O)cc1`, the inhibition result (run 1) is “inactive”.
For the compound `COc1ccc(Oc2c(Cl)cnn(C(CO)c3ccccc3)c2=O)cc1` (stereo unspecified), the IC50 result (run 1) is “inactive”.
On the same count and under the same terms, then `COc1ccc(Oc2c(Cl)cnn(Cc3c(Cl)cccc3Cl)c2=O)cc1`, with 7.65 µM; and `CCOc1ccc(Oc2c(N)cnn(Cc3cccc4ccccc34)c2=O)cc1`, with 5.02 µM.
The same measure, in the same setting: then `CCOc1ccc(Oc2c(NC(=O)OC(C)(C)C)cnn(Cc3cccc4ccccc34)c2=O)cc1`, with > 20 µM (inactive).
Consider `COc1ccc(Oc2c(Cl)cnn(-c3ccc(C)c(C)c3)c2=O)cc1`, for which the concentration for half-maximal inhibition (IC50) was 9.47 µM (run 1) and 3.99 µM (run 2).
For `COc1ccc(Oc2c(Cl)cnn(Cc3ccc(Br)c4ccccc34)c2=O)cc1`, the IC50 (run 1) is > 20 µM (inactive).
On the same count and under the same terms, then `COc1ccc(Oc2c(Cl)cnn(-c3cccc(Br)c3)c2=O)cc1`, with 2.92 µM.
On the same count and under the same terms, then `COc1ccc(Oc2c(Cl)cnn(-c3ccc(C4=CCCCC4)cc3)c2=O)cc1`, with 5.13 µM.
On the same count and under the same terms, then `COc1ccc(Oc2c(C#N)cnn(-c3ccc(Br)cc3)c2=O)cc1`, with “inactive”.
Take `COc1ccc(Oc2c(Cl)cnn(Cc3ccc(F)cc3Cl)c2=O)cc1`: the IC50 (run 1) was 4.16 µM.
On the same count and under the same terms, then `CCOc1ccc(Oc2c(Cl)cnn(-c3cc(C)cc(C)c3)c2=O)cc1`, with 2.41 µM; and `COc1ccc(Oc2c(C)c(C)nn(Cc3ccccc3C)c2=O)cc1`, with 7.31 µM; and `COc1ccc(Oc2c(Cl)cnn(Cc3ccc4c(c3)OCO4)c2=O)cc1`, with 7.57 µM.
Still for that read-out and setting: then `O=c1c(Oc2ccc3occc3c2)c(Cl)cnn1Cc1cccc2ccccc12`, with > 20 µM (inactive); and `COc1ccc(Oc2c(Cl)cnn(-c3ccc(F)cc3)c2=O)cc1`, with 7.84 µM.
Same read-out and setting: then `COc1ccc(Nc2ccnn(Cc3cccc4ccccc34)c2=O)cc1`, with > 20 µM (inactive); and `COc1ccc(Oc2c(Cl)cnn(C(COC(C)=O)c3cccc4ccccc34)c2=O)cc1` (stereo unspecified), with > 20 µM (inactive).
With `CCOc1ccc(Oc2c(N3CCCCC3)cnn(Cc3cccc4ccccc34)c2=O)cc1`, the inhibition result (run 1) is “inactive”.
Regarding `COc1ccc(Oc2c(Cl)c(Br)nn(Cc3ccccc3C)c2=O)cc1`, the IC50 (run 1) is 1.79 µM.
The same measure, in the same setting: then `COc1ccc(Oc2c(Cl)cnn(-c3ccc(C)cc3C)c2=O)cc1`, with 8.91 µM; and `CN(C)Cc1ccc(Oc2c(Cl)cnn(Cc3cccc4ccccc34)c2=O)cc1`, with > 20 µM (inactive).
For the compound `COCn1ncc(Cl)c(Oc2ccc(OC)cc2)c1=O`, the IC50 (run 1) is > 20 µM (inactive).
`CC(C)c1ccc(Oc2c(Cl)cnn(Cc3cccc4ccccc34)c2=O)cc1`: the IC50 (run 1) was 8.08 µM.
Still for that read-out and setting: then `COc1ccc(Oc2c(Cl)cnn(-c3ccccc3)c2=O)cc1`, with “inactive”.
Same read-out and setting: then `COc1ccc(Oc2cnn(Cc3cccc4ccccc34)c(=O)c2Br)cc1`, with > 20 µM (inactive).
With `Cc1cccc(Cn2ncc(Oc3ccc(CO)cc3)c(Cl)c2=O)c1`, for the setting “run 1”, the half-inhibitory concentration (IC50) was 5.16 µM.
Same read-out and setting: then `CCCCCc1ccc(-n2ncc(Cl)c(Oc3ccc(OC)cc3)c2=O)cc1`, with 9.78 µM; and `COc1ccc(Oc2c(Cl)cnn(Cc3ccc(Cl)cc3)c2=O)cc1`, with 3.2 µM; and `O=c1c(Oc2ccc(OC(F)(F)F)cc2)c(Cl)cnn1Cc1cccc2ccccc12`, with “inactive”.
The same measure, in the same setting: then `CC(C)c1ccc(-n2ncc(Cl)c(Oc3ccc(O)cc3)c2=O)cc1`, with > 20 µM (inactive); and `NCc1ccc(Oc2c(Cl)cnn(Cc3cccc4ccccc34)c2=O)cc1`, with “inactive”; and `COc1ccc(Oc2c(Cl)cnn(Cc3c(OC)ccc4ccccc34)c2=O)cc1`, with 6.18 µM.
The same measure, in the same setting: then `COc1cccc(Oc2c(Cl)cnn(Cc3cccc4ccccc34)c2=O)c1`, with 8.9 µM; and `Cc1ccc(-n2ncc(Cl)c(Oc3ccc(O)cc3)c2=O)cc1`, with > 20 µM (inactive).

Broadly, the IC50 is the concentration that inhibits the measured activity by half.
